Experimental data: the Bradley open melting point set (2014)
Values joined by “and” are separate entries in the source; they are usually repeats but may differ in a detail not shown here. Identical values can stand only once.

SMILES	melting point
O=C(Cl)N(c1ccccc1)c1ccccc1 [diphenylcarbamyl chloride]	84 °C
c1ccc(Cc2ccccc2)cc1 [diphenylmethane] [listing 1 of 2 here]	90.5 °C
c1ccc(Cc2ccccc2)cc1 [diphenylmethane] [listing 2 of 2 here]	24 °C
O=[PH](c1ccccc1)c1ccccc1 [diphenylphosphine oxide]	54 °C
CN(C)C(=O)Nc1ccc(Cl)c(Cl)c1 [diuron]	158 °C (2×) and 159 °C
CCCCCCCCCCCC#N [dodecanonitrile]	4 °C
Cl\C1=C(/Cl)C2(Cl)C3C4CC(C3C1(Cl)C2(Cl)Cl)C5OC45 (centres undefined) [endrin]	210 °C
ClCC1CO1 (centres undefined) [epichlorohydrin] [listing 1 of 2 here]	-57 °C
ClCC1CO1 (centres undefined) [epichlorohydrin] [listing 2 of 2 here]	-57.1 °C
CCC1OC(=O)C(C)C(OC2CC(C)(OC)C(O)C(C)O2)C(C)C(OC2OC(C)CC(N(C)C)C2O)C(C)(O)CC(C)C(=O)C(C)C(O)C1(C)O (centres undefined) [erythromycin]	135 °C
CCO [ethanol]	-114 °C
C#CC1(O)CCC2C3CCc4cc(O)ccc4C3CCC21C (centres undefined) [ethinylestradiol]	141 °C
CCOC(=O)C(C#N)=C(SC)N(C)C [ethyl 2-cyano-3-(dimethylamino)-3-(methylthio)acrylate]	92 °C
CCOC(=O)C1=C(C)N=NC1C (centres undefined) [ethyl 3,5-dimethyl-1H-pyrazole-4-carboxylate]	119 °C
CCOC(=O)CCC(C)C1CCC2C3C(=O)C(Br)C4CC(OC(C)=O)CCC4(C)C3CC(OC(C)=O)C12C (centres undefined) [ethyl 3,12-bis(acetyloxy)-6-bromo-7-oxocholan-24-oate]	125 °C
CCOC(=O)c1cc(C)n(C2=CC(C)N=N2)n1 (centres undefined) [ethyl 5,5'-dimethyl-1'H-1,3'-bipyrazole-3-carboxylate]	121 °C
CCCCCCCCCCCCCCCCCC(=O)OCC [ethyl stearate]	35 °C
C=COCC [ethyl vinyl ether]	-115 °C
CCOC(=O)c1ccccc1N [ethyl_2-aminobenzoate]	14 °C
C=CC(=O)OCC [ethyl_acrylate]	-71 °C
CCCCOCC [ethyl_butyl_ether]	-103 °C
CCOS(=O)(=O)c1ccc(C)cc1 [ethyl_p-toluenesulfonate]	34 °C
CCB(O)O [ethylboronic acid]	86 °C
CCNc1nsc2ccccc12 [etisazol]	78 °C
CCOC(=O)c1cncn1C(C)c1ccccc1 (centres undefined) [etomidate]	67 °C

SMILES	melting point
O=C1OC(=O)[C@H]2[C@@H]1[C@@H]1C=C[C@H]2O1 [exo-7-oxabicyclo[2.2.1]hept-5-ene-2,3-dicarboxylic anhydride]	119 °C
NC(N)=Nc1nc(CSCCC(N)=NS(N)(=O)=O)cs1 [famotidine]	163 °C
N#CC(CCc1ccc(Cl)cc1)(Cn1cncn1)c1ccccc1 (centres undefined) [fenbuconazole]	125 °C
O=C(O)CCC(=O)c1ccc(-c2ccccc2)cc1 [fenbufen]	186 °C
CC1(C)C(=O)[C@]2(C)CC[C@H]1C2 [fenchone]	4 °C
CN(C)C(=O)Nc1ccccc1 [fenuron]	134 °C
COc1ccccc1N1CCN(CCCC(=O)c2ccc(F)cc2)CC1 [fluanisone]	68 °C
O=C1COC(c2ccc(C(F)(F)F)cc2)CN1 (centres undefined) [flumetramide]	116 °C
c1ccc2c(c1)Cc1ccccc1-2 [fluorene]	114 °C and 116 °C
O=CO [formic acid]	8.3 °C and 8.32 °C
C(=C/C#N)C#N [fumaronitrile]	97 °C
OCc1ccco1 [furfuryl alcohol]	-31 °C
O=C(O)c1ccco1 [furoic acid]	134 °C
O=C(O)c1cc(O)ccc1O [gentisic acid]	205 °C
O=C(O)CCCC(=O)O [glutaric acid]	97 °C
N#CCCCC#N [glutaronitrile]	-29 °C
COc1ccc(Cl)cc1C(=O)NCCc1ccc(S(=O)(=O)NC(=O)NC2CCCCC2)cc1 [glybenzcyclamide]	173 °C
NCC(=O)O [glycine]	262 °C
COC1=CC(=O)CC(C)C12Oc1c(Cl)c(OC)cc(OC)c1C2=O (centres undefined) [griseofulvin]	219 °C
COC1=CC(=O)C[C@@H](C)[C@]12Oc1c(Cl)c(OC)cc(OC)c1C2=O [griseofulvin]	219 °C
Cc1ccc(C(C)C)cc2c(C)ccc1-2 [guaiazulene]	32 °C
O=C(CCCN1CCC(O)(c2ccc(Cl)cc2)CC1)c1ccc(F)cc1 [haloperidol] [listing 1 of 2 here]	149 °C
O=C(CCCN1CCC(O)(c2ccc(Cl)cc2)CC1)c1ccc(F)cc1 [haloperidol] [listing 2 of 2 here]	152 °C
COc1ccc2c(c1)[nH]c1c(C)nccc12 [harmine]	264 °C

Results, then the compound that gave them:

melting point	SMILES
88 °C	O=C(CCC(=O)Oc1ccccc1)Oc1ccccc1 [diphenyl succinate]
174 °C	CCOC(=O)c1sc(N)nc1C [ethyl 2-amino-4-methylthiazole-5-carboxylate]
57 °C	CCOC(=O)c1csc(C)n1 [ethyl 2-methyl-1,3-thiazole-4-carboxylate]
150 °C	CCOC(=O)c1cc(O)c(O)c(O)c1 [ethyl 3,4,5-trihydroxybenzoate]
106 °C	CCOC(=O)c1c[nH]nc1N [ethyl 3-amino-1h-pyrazole-4-carboxylate]
75 °C	CCOC(=O)c1ccc(-n2cccc2)cc1 [ethyl 4-(1-pyrrolyl)benzoate]
89 °C	CCOC(=O)c1ccc(N)cc1 [ethyl 4-aminobenzoate]
47 °C	CCOC(=O)Cc1ccc(N)cc1 [ethyl 4-aminophenylacetate]
54 °C	CCOC(=O)c1ccc(Cl)c([N+](=O)[O-])c1 [ethyl 4-chloro-3-nitrobenzoate]
8 °C	CCOC(=O)c1ccc(OC)cc1 [ethyl 4-methoxybenzoate]
103 °C	CCOC(=O)Nc1cccc([N+](=O)[O-])c1[N+](=O)[O-] [ethyl (2,3-dinitrophenyl)carbamate]
67 °C	CCOC(=O)c1ccc2c(c1)no[n+]2[O-] [ethyl benzofuroxan-5-carboxylate]
59 °C	CCOC(=O)CNC(=O)c1ccccc1 [ethyl hippurate]
-99 °C	CCOC(=O)CC(C)C [ethyl isovalerate]
-25 °C	CCOC(=O)[C@H](C)O [ethyl l-lactate]
112 °C	CCOC(C)=NOc1ccc([N+](=O)[O-])cc1[N+](=O)[O-] [ethyl n-(2,4-dinitrophenoxy)acetimidate]
89 °C	CCOC(=O)c1ccc(N)cc1 [ethyl p-aminobenzoate]
-73 °C	CCOC(=O)CC [ethyl propionate]
1 °C	CCOC(=O)c1ccccc1O [ethyl salicylate]
-22 °C	CCOC(=O)CC#N [ethyl_cyanoacetate]
68 °C	CCOC(=O)c1ccccc1C#N [ethyl_o-cyanobenzoate]
-73 °C	CCOC(=O)CC [ethyl_propionate]
-95 °C	CCc1ccccc1 [ethylbenzene]
116 °C	CCOC(=O)c1ccc(O)cc1 [ethylparaben]
53.5 °C	CCOC(=O)NCCOc1ccc(Oc2ccccc2)cc1 [fenoxycarb]
